The source of these data is patent US7915448B2, “Substituted sulfonylaminoarylmethyl cyclopropanecarboxamide as VR1 receptor antagonists” (Pfizer Inc., priority 2005, dated 2011).

The pIC50 is −log10 of the IC50, conventionally taken in molar units. The half-life is the time needed for the level to fall by half in the phase considered. Higher therefore signals slow decline.

pIC50: −log10 of the molar value. Like-named read-outs stand apart in the source and are kept apart here. Where only a bound is given, the exact number is not on record here.

One data set addresses T1, human VR1 receptors (Homo sapiens, UniProt Q8NER1).
T1 construct: host or cells: cells highly expressing human VR1; cell type not specified
The data set is described as follows: Human VR1 antagonist assay (Ca2+ imaging). In kind it is cell-based. Particulars: cells expressing human VR1, fura-2 Ca2+ imaging, FDSS 6000; capsaicin (300 nM) or acid (pH5.8) stimulation, table does not say which. A digest of the protocol: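 Human VR1-expressing cells loaded with 5 μM fura-2/AM for 1 h, resuspended at 3.75×10^5 cells/ml and preincubated 15 min at room temperature in the dark with compound. Stimulation by 300 nM capsaicin in KRH buffer pH 7.3, or by acid (HBSS/MES, final pH 5.8) from HBSS-HEPES pH 7.4; fluorescence (ex 340/380 nm, em 510-520 nm) monitored from 1 min before addition for 5 min.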

The conditions of data set [1]: human, microsomes, pH 7.4.
Data set [2] is described as follows: Half-life in Human Liver Microsomes (HLM). Particulars: pH 7.4; for half-life at 1 μM: human, human liver microsomes (HL101).

T1 sequence (Q8NER1 whole entry): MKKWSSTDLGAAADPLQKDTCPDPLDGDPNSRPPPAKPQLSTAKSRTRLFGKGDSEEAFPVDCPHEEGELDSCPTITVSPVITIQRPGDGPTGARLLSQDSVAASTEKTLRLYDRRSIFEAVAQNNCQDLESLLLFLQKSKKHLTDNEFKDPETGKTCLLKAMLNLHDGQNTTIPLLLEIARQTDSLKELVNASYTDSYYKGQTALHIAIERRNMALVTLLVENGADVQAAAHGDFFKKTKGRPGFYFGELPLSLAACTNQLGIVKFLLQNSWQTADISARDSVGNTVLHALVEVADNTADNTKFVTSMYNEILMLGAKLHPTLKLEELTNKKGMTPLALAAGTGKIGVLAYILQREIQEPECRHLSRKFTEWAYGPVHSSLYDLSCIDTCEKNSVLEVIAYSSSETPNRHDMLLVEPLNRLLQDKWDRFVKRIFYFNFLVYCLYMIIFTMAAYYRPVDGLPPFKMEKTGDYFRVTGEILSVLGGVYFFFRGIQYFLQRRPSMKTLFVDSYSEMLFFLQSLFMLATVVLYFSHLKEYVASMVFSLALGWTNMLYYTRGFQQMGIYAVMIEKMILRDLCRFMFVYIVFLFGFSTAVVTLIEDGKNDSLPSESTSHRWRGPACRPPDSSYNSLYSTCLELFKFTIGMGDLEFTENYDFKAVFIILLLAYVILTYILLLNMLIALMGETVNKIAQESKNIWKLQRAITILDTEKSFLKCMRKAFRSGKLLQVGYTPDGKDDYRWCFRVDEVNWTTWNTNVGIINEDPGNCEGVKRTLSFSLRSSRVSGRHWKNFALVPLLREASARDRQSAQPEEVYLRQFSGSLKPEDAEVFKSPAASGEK

In turn, `C[C@@H](NC(=O)C1CC1(C)c1ccc(C(F)(F)F)c(F)c1)c1cc(F)c(NS(C)(=O)=O)c(F)c1` (stereo partly drawn) [Example 73, N-((1R)-1-{3,5-Difluoro-4-[(methylsulfonyl)amino]phenyl}ethyl)-2-[3-fluoro-4-(trifluoromethyl)phenyl]-2-methylcyclooropanecarboxamide] had a pIC50 at human VR1 receptors of 9.12. In addition, the “T1/2” value in data set [1] was greater than 120 min.

Turning to “N-((1R)-1-{3,5-Difluoro-4-[(methylsulfonyl)amino]phenyl}ethyl)-2-[3,5-difluoro-4-(2,2,2-trifluoro-1-dimethylethyl)phenyl]-2-methylcyclopropanecarboxamide [Example 80]”, the pIC50 at human VR1 receptors was 8.52. Moreover, the “T1/2” value in data set [1] stood at 117 min.

With `Cc1cc([C@@H](C)NC(=O)C2CC2c2ccc(C(C)(C)C)cc2)ccc1NS(C)(=O)=O` (stereo partly drawn) [Example 7, 2-(4-tert-Butylphenyl)-N-((1 FR)-1-{3-methyl-4-[(methylsulfonyl)amino]phenyl}ethyl)cyclopropanecarboxamide], the pIC50 against human VR1 receptors was 7.82. The “T1/2” value in data set [1] turned out to be 33 min.

`Cc1cc([C@@H](C)NC(=O)C2CC2(C)c2ccc(C(C)(C)C(F)(F)F)cc2)ccc1NS(C)(=O)=O` (stereo partly drawn) [Example 27] had a pIC50 against human VR1 receptors of 8.11. This molecule returned a half-life at 1 μM in data set [2] of 25 min.

The molecule `Cc1cc([C@@H](C)NC(=O)C2CC2c2ccc(C(C)(C)C)nc2)ccc1NS(C)(=O)=O` (stereo partly drawn) [Example 53, 2-[6-tert-Butylpyridin-3-yl]-N-((1R)-1-{3-methyl-4-[(methylsulfonyl)amino]phenyl}ethyl)cyclopropanecarboxamide] gave a pIC50 on human VR1 receptors of 6.90. In data set [2], this molecule displayed a half-life at 1 μM of 44 min.

Turning to `Cc1cc([C@@H](C)NC(=O)[C@H]2C[C@@H]2c2cc(F)c(C(C)(C)C)c(F)c2)ccc1NS(C)(=O)=O` [Example 39, 2-(4-tert-Butyl-3,5-difluorophenyl)-N-((1R)-1-{3-methyl-4-[(methylsulfonyl)amino]phenyl}ethyl)cyclopropanecarboxamide], the pIC50 at human VR1 receptors is 8.04. Further, the half-life at 1 μM in data set [2] stood at 15 min.

`C[C@@H](NC(=O)[C@H]1C[C@]1(C)c1ccc(C(F)(F)F)cc1)c1cc(F)c(NS(C)(=O)=O)cc1F` [Example 60, (1S,2S)-N-((1R)-1-{2,5-Difluoro-4-[(methylsulfonyl)amino]phenyl}ethyl)-2-methyl-2-[4-(trifluoromethyl)phenyl]cyclopropanecarboxamide]: on human VR1 receptors, the pIC50 was 7.60. In data set [2], the half-life at 1 μM was greater than 120 min.

`Cc1cc([C@@H](C)NC(=O)[C@H]2C[C@]2(C)c2cc(F)c(C(C)(C)C)c(F)c2)ccc1NS(C)(=O)=O` [Example 44, 2-(4-tert-Butyl-3,5-difluorophenyl)-2-methyl-N-((1R)-1-{3-methyl-4-[(methylsulfonyl)amino]phenyl}ethyl)cyclopropanecarboxamide] had a pIC50 on human VR1 receptors of 8.70. Besides, in data set [2], the half-life at 1 μM stood at 29 min.

At human VR1 receptors, `C[C@@H](NC(=O)C1CC1(C)c1ccc(S(=O)(=O)C(F)(F)F)cc1)c1ccc(NS(C)(=O)=O)c(CO)c1` (stereo partly drawn) [Example 69, N-((1R)-1-{3-(Hydroxymethyl)-4-[(methylsulfonyl)amino]phenyl}ethyl)-2-methyl-2-{4-[(trifluoromethyl)sulfonyl]phenyl}cyclopropanecarboxamide] gave a pIC50 of 6.67. The half-life at 1 μM in data set [2] worked out at 30 min.

The molecule `Cc1cc([C@@H](C)NC(=O)[C@H]2C[C@@H]2c2ccc(C(F)(F)F)nc2N2CCCC2)ccc1NS(C)(=O)=O` [Example 46, N-((1R)-1-{3-Methyl-4-[(methylsulfonyl)amino]phenyl}ethyl)-2-[2-pyrrolidin-1-yl-6-(trifluoromethyl)pyridin-3-yl]cyclopropanecarboxamide] gave a negative-log IC50 (pIC50) on human VR1 receptors of 7.90. In addition, the half-life at 1 μM in data set [2] stood at 23 min.

As for `Cc1cc([C@@H](C)NC(=O)[C@H]2C[C@@H]2c2ccc(C(F)(F)F)nc2N(C)C)c(F)cc1NS(C)(=O)=O` [Example 79, 2-[2-(Dimethylamino)-6-(trifluoromethyl)pyridin-3-yl]-N-((1R)-1-{2-fluoro-5-methyl-4-[(methylsulfonyl)amino]phenyl}ethyl)cyclopropanecarboxamide], the negative-log IC50 (pIC50) on human VR1 receptors is 7.69. Moreover, in data set [2], the half-life at 1 μM was 22 min.

As for `Cc1cc([C@@H](C)NC(=O)[C@H]2C[C@]2(C)c2ccc(C(F)(F)F)cc2)ccc1NS(C)(=O)=O` [Example 70, (1S,2S)-2-Methyl-N-((1R)-1-{3-methyl-4-[(methylsulfonyl)amino]phenyl}ethyl)-2-[4-(trifluoromethyl)phenyl]cyclopropanecarboxamide], the negative-log IC50 (pIC50) against human VR1 receptors is 9.08. In addition, the “T1/2” value in data set [2] (1 μM compound, 0.78 mg/mL HLM, 37° C., NADPH) is 38 min.

Molecule `Cc1cc(CNC(=O)C2CC2c2ccc(C(C)(C)C)c(F)c2)ccc1NS(C)(=O)=O` (stereo not drawn) [Example 4, 2-(4-tert-Butyl-3-fluorophenyl)-N-{3-methyl-4-[(methylsulfonyl)amino]benzyl}cyclopropanecarboxamide] showed a pIC50 at human VR1 receptors of 6.72. Also, the half-life at 1 μM in data set [2] came out at 9 min.

With `C[C@@H](NC(=O)C1CC1c1ccc(C(C)(C)C)nc1N1CCCCC1)c1ccc(NS(C)(=O)=O)c(F)c1` (stereo partly drawn) [Example 50, 2-(6-tert-Butyl-2-piperidin-1-ylpyridin-3-yl)-N-((1R)-1-{3-fluoro-4-[(methylsulfonyl)amino]phenyl}ethyl)cyclopropanecarboxamide], on human VR1 receptors, the negative logarithm of the IC50 (pIC50) is 6.62. The half-life at 1 μM in data set [2] turned out to be 4 min.

`Cc1cc([C@H](C)NC(=O)[C@H]2C[C@]2(C)c2ccc(C(F)(F)F)cc2)ccc1NS(C)(=O)=O` (single isomer, unassigned) [Example 82] showed a negative logarithm of the IC50 (pIC50) against human VR1 receptors of 7.21. This molecule yielded a half-life at 1 μM in data set [2] of 26 min.

At human VR1 receptors, `C[C@@H](NC(=O)[C@@H]1C[C@@]1(C)c1ccc(C(F)(F)F)c(F)c1)c1cc(F)c(NS(C)(=O)=O)c(F)c1` [Example 74, N-((1R)-1-{3,5-Difluoro-4-[(methylsulfonyl)amino]phenyl}ethyl)-2-[3-fluoro-4-(trifluoromethyl)phenyl]-2-methylcyclopropanecarboxamide] had a pIC50 of 7.68. The same molecule showed a half-life at 1 μM in data set [2] greater than 120 min.

In turn, `CC(C)(C)c1ccc(C2CC2C(=O)NCc2ccc(NS(C)(=O)=O)c(F)c2)cc1` (stereo not drawn) [Example 1, 2-(4-tert-Butylphenyl)-N-{3-fluoro-4-[(methylsulfonyl)amino]benzyl}cyclopropanecarboxamide] gave a pIC50 at human VR1 receptors of 6.48. Also, in data set [2], the half-life at 1 μM came out at 13 min.

For the molecule `Cc1cc([C@@H](C)NC(=O)C2CC2c2ccc(C(C)(C)C)c(F)c2)ccc1NS(C)(=O)=O` (stereo partly drawn) [Example 2, 2-(4-tert-Butyl-3-fluorophenyl)-N-((1R)-1-{3-methyl-4-[(methylsulfonyl)amino]phenyl}ethyl)cyclopropanecarboxamide], the pIC50 against human VR1 receptors was 7.95. In addition, the half-life at 1 μM in data set [2] amounted to 32 min.

`CC[C@@H](NC(=O)[C@H]1C[C@@H]1c1cc(F)c(C(C)(C)C)c(F)c1)c1ccc(NS(C)(=O)=O)c(C)c1` [Example 76, 2-(4-tert-Butyl-3,5-difluorophenyl)-N-((1R)-1-{3-methyl-4-[(methylsulfonyl)amino]phenyl}propyl)cyclopropanecarboxamide] showed a negative logarithm of the IC50 (pIC50) on human VR1 receptors of 7.58. For the same molecule, the half-life at 1 μM in data set [2] worked out at 33 min.

`COC1(c2ccc(C(F)(F)F)cc2)CC1C(=O)N[C@H](C)c1ccc(NS(C)(=O)=O)c(C)c1` (stereo partly drawn) [Example 63, N-((1R)-1-{3-Methyl-4-[(methylsulfonyl)amino]phenyl}ethyl)-2-(methyloxy)-2-[4-(trifluoromethyl)phenyl]cyclopropanecarboxamide]: the negative-log IC50 (pIC50) against human VR1 receptors was 8.18. This molecule also had a half-life at 1 μM in data set [2] of 35.6 min.

Regarding `COC1(c2ccc(C(C)(C)C)cc2)CC1C(=O)N[C@H](C)c1ccc(NS(C)(=O)=O)c(C)c1` (stereo partly drawn) [Example 64, 2-[4-tert-Butylphenyl]-N-((1R)-1-{3-methyl-4-[(methylsulfonyl)amino]phenyl}ethyl)-2-(methyloxy)cyclopropanecarboxamide], the pIC50 against human VR1 receptors was 8.34. In data set [2], this molecule returned a half-life at 1 μM of 14 min.

In the case of `Cc1cc([C@@H](C)NC(=O)C2CC2(C)c2ccc(C(F)(F)F)nc2)ccc1NS(C)(=O)=O` (single isomer, unassigned) [Example 57], the pIC50 against human VR1 receptors was 7.52. Besides, in data set [2], the half-life at 1 μM came out at 91 min.

Regarding `Cc1cc([C@@H](C)NC(=O)C2CC2(CO)c2ccc(C(C)(C)C)cc2)ccc1NS(C)(=O)=O` (stereo partly drawn) [Example 59, 2-[4-tert-Butylphenyl]-2-(hydroxymethyl)-N-((1R)-1-{3-methyl-4-[(methylsulfonyl)amino]phenyl}ethyl)cyclopropanecarboxamide], the pIC50 against human VR1 receptors was 6.58. In data set [2], the half-life at 1 μM stood at 22 min.

`C[C@@H](NC(=O)[C@H]1C[C@]1(C)c1ccc(C(F)(F)F)cc1)c1cc(F)c(NS(C)(=O)=O)c(F)c1` [Example 61, (1S,2S)-N-((1R)-1-{3,5-Difluoro-4-[(methylsulfonyl)amino]phenyl}ethyl)-2-methyl-2-[4-(trifluoromethyl)phenyl]cyclopropanecarboxamide]: the pIC50 on human VR1 receptors is 8.50. For the same molecule, the half-life at 1 μM in data set [2] is greater than 120 min.
